Test results from ChEMBL document CHEMBL4330132, “5-Keto-3-cyano-2,4-diaminothiophenes as selective maternal embryonic leucine zipper kinase inhibitors” (Bioorg Med Chem Lett, 2019).

Columns and labels:
[1] = target: Activin receptor type-1-like (Homo sapiens) (UniProt P37023); assay: Binding affinity to wild-type human ACVRL1 (L164 to Q503 residues) expressed in bacterial expression system assessed as residual binding level at 1 uM by Kinomescan method relative to control
[2] = target: Cyclin-dependent kinase 13 (Homo sapiens) (UniProt Q14004); assay: Binding affinity to wild-type human partial length CDC2L5 (H675 to S1054 residues) expressed in mammalian expression system assessed as residual binding level at 1 uM by Kinomescan method relative to control
[3] = target: Cyclin-dependent kinase 9 (Homo sapiens) (UniProt P50750); assay: Binding affinity to wild-type human full length CDK9 (M1 to F372 residues) expressed in bacterial expression system assessed as residual binding level at 1 uM by Kinomescan method relative to control
Chain of Cyclin-dependent kinase 9 (Homo sapiens) (P50750 whole entry, the tested form may be a part): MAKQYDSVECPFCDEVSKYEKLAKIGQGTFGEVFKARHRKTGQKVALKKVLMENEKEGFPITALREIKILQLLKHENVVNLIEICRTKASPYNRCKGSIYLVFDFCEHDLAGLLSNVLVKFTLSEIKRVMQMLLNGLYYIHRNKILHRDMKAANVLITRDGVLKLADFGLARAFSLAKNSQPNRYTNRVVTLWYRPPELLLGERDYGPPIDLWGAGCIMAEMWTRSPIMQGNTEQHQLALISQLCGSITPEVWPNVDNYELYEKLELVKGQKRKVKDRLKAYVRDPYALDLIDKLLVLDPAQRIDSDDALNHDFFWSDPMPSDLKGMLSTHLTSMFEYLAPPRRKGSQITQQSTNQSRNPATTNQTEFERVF

[4] = target: Megakaryocyte-associated tyrosine-protein kinase (Homo sapiens) (UniProt P42679); assay: Binding affinity to wild-type human full length CTK (M43 to P508 residues) expressed in mammalian expression system assessed as residual binding level at 1 uM by Kinomescan method relative to control
[5] = target: Serine/threonine-protein kinase 17B (Homo sapiens) (UniProt O94768); assay: Binding affinity to wild-type human full length DRAK2 (M1 to C372 residues) expressed in bacterial expression system assessed as residual binding level at 1 uM by Kinomescan method relative to control
Chain of Serine/threonine-protein kinase 17B (Homo sapiens) (O94768 whole entry, the tested form may be a part): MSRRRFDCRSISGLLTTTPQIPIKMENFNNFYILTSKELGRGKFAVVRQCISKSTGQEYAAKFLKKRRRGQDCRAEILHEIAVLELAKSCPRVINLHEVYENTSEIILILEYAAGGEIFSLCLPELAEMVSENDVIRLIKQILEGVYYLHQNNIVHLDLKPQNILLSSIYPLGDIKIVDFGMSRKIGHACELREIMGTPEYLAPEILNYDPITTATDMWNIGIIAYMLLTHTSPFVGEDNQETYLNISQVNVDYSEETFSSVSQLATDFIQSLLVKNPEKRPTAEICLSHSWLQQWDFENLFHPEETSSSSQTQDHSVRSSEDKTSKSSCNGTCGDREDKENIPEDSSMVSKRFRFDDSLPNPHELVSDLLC

[6] = target: Epidermal growth factor receptor (Homo sapiens) (UniProt P00533); assay: Binding affinity to wild-type human partial length EGFR (R669 to V1011 residues) expressed in bacterial expression system assessed as residual binding level at 1 uM by Kinomescan method relative to control
[7] = system: Epidermal growth factor receptor (Homo sapiens), P00533 [G719C]; assay: Binding affinity to human partial length EGFR G719C mutant (R669 to V1011 residues) expressed in bacterial expression system assessed as residual binding level at 1 uM by Kinomescan method relative to control
[8] = system: Epidermal growth factor receptor (Homo sapiens), P00533 [UNDEFINED MUTATION]; assay: Binding affinity to human partial length EGFR L747-S752del/P753S mutant expressed in bacterial expression system assessed as residual binding level at 1 uM by Kinomescan method relative to control
[9] = target: Tyrosine-protein kinase Fer (Homo sapiens) (UniProt P16591); assay: Binding affinity to wild-type human partial length FER (S542 to T822 residues) expressed in bacterial expression system assessed as residual binding level at 1 uM by Kinomescan method relative to control
[10] = target: Fibroblast growth factor receptor 4 (Homo sapiens) (UniProt P22455); assay: Binding affinity to wild-type human partial length FGFR4 (G402 to E713 residues) expressed in bacterial expression system assessed as residual binding level at 1 uM by Kinomescan method relative to control
[11] = target: Interleukin-1 receptor-associated kinase 4 (Homo sapiens) (UniProt Q9NWZ3); assay: Binding affinity to wild-type human partial length IRAK4 (M1 to S460 residues) expressed in mammalian expression system assessed as residual binding level at 1 uM by Kinomescan method relative to control
Chain of Interleukin-1 receptor-associated kinase 4 (Homo sapiens) (Q9NWZ3 whole entry, the tested form may be a part): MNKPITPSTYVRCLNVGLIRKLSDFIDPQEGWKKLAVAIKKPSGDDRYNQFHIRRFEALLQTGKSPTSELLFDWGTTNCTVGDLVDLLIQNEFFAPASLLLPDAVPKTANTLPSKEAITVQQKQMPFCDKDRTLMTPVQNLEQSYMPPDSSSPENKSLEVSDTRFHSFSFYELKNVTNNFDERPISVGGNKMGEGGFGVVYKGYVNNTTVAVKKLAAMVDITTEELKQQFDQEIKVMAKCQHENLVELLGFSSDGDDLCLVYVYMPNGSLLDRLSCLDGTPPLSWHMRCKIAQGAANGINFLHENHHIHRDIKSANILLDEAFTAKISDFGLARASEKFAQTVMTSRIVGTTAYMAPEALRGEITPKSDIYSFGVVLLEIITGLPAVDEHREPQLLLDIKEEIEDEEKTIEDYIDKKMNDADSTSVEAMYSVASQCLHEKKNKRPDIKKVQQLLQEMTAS

[12] = target: Mast/stem cell growth factor receptor Kit (Homo sapiens) (UniProt P10721); assay: Binding affinity to wild-type human partial length KIT (I571 to D952 residues) expressed in bacterial expression system assessed as residual binding level at 1 uM by Kinomescan method relative to control
[13] = system: Mast/stem cell growth factor receptor Kit (Homo sapiens), P10721 [UNDEFINED MUTATION]; assay: Binding affinity to human partial length KIT V559D/[…] double mutant (Y545 to D952 residues) expressed in bacterial expression system assessed as residual binding level at 1 uM by Kinomescan method relative to control
[14] = target: Tyrosine-protein kinase Lck (Homo sapiens) (UniProt P06239); assay: Binding affinity to wild-type human partial length LCK (R207 to P509 residues) expressed in bacterial expression system assessed as residual binding level at 1 uM by Kinomescan method relative to control
[15] = target: Mitogen-activated protein kinase kinase kinase kinase 3 (Homo sapiens) (UniProt Q8IVH8); assay: Binding affinity to wild-type human partial length MAP4K3 (M1 to D301 residues) expressed in bacterial expression system assessed as residual binding level at 1 uM by Kinomescan method relative to control
[16] = target: Dual specificity mitogen-activated protein kinase kinase 3 (Homo sapiens) (UniProt P46734); assay: Binding affinity to wild-type human full length MEK3 (M1 to S318 residues) expressed in mammalian expression system assessed as residual binding level at 1 uM by Kinomescan method relative to control
Chain of Dual specificity mitogen-activated protein kinase kinase 3 (Homo sapiens) (P46734 whole entry, the tested form may be a part): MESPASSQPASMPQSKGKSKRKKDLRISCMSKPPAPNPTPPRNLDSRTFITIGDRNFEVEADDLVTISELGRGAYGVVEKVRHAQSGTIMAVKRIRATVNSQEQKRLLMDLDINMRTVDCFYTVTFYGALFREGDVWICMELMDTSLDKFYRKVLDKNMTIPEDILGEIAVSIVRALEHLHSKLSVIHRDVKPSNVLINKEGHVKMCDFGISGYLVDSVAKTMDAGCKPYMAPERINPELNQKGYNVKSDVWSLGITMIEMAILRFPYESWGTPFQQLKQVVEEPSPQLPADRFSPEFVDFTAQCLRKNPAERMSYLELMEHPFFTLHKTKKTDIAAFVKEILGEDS

[17] = target: Serine/threonine-protein kinase 4 (Homo sapiens) (UniProt Q13043); assay: Binding affinity to wild-type human full length MST1 (M1 to F487 residues) expressed in bacterial expression system assessed as residual binding level at 1 uM by Kinomescan method relative to control
Chain of Serine/threonine-protein kinase 4 (Homo sapiens) (Q13043 whole entry, the tested form may be a part, canonical isoform): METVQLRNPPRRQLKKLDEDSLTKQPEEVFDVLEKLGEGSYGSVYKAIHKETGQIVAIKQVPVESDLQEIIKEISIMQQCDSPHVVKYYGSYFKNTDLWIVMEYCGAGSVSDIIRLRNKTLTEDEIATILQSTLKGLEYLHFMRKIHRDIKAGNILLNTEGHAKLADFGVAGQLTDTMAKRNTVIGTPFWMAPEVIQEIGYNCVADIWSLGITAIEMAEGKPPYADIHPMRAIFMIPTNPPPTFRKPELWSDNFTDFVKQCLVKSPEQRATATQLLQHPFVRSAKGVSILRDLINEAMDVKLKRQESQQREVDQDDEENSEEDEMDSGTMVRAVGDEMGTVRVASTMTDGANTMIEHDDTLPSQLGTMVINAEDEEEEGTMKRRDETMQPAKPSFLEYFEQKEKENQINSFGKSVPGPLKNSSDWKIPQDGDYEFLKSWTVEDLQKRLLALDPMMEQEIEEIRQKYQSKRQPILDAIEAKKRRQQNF

[18] = system: Phosphatidylinositol 4,5-bisphosphate 3-kinase catalytic subunit alpha isoform (Homo sapiens), P42336 [E542K]; assay: Binding affinity to human partial length PIK3CA E542K mutant (R108 to N1068 residues) expressed in mammalian expression system assessed as residual binding level at 1 uM by Kinomescan method relative to control
[19] = target: Serine/threonine-protein kinase PLK4 (Homo sapiens) (UniProt O00444); assay: Binding affinity to wild-type human partial length PLK4 (M1 to S273 residues) expressed in mammalian expression system assessed as residual binding level at 1 uM by Kinomescan method relative to control
[20] = target: Serine/threonine-protein kinase D1 (Homo sapiens) (UniProt Q15139); assay: Binding affinity to wild-type human partial length PRKD1 (G551 to E870 residues) expressed in bacterial expression system assessed as residual binding level at 1 uM by Kinomescan method relative to control
[21] = target: STE20/SPS1-related proline-alanine-rich protein kinase (Homo sapiens) (UniProt Q9UEW8); assay: Binding affinity to wild-type human partial length STK39 (P43 to I357 residues) expressed in mammalian expression system assessed as residual binding level at 1 uM by Kinomescan method relative to control
[22] = target: Angiopoietin-1 receptor (Homo sapiens) (UniProt Q02763); assay: Binding affinity to wild-type human partial length TIE2 (N804 to T1112 residues) expressed in bacterial expression system assessed as residual binding level at 1 uM by Kinomescan method relative to control
[23] = target: Non-receptor tyrosine-protein kinase TYK2 (Homo sapiens) (UniProt P29597); assay: Binding affinity to wild-type human partial length TYK2 JH1 catalytic domain (V877 to C1187 residues) expressed in mammalian expression system assessed as residual binding level at 1 uM by Kinomescan method relative to control
Chain of Non-receptor tyrosine-protein kinase TYK2 (Homo sapiens) (P29597 whole entry, the tested form may be a part): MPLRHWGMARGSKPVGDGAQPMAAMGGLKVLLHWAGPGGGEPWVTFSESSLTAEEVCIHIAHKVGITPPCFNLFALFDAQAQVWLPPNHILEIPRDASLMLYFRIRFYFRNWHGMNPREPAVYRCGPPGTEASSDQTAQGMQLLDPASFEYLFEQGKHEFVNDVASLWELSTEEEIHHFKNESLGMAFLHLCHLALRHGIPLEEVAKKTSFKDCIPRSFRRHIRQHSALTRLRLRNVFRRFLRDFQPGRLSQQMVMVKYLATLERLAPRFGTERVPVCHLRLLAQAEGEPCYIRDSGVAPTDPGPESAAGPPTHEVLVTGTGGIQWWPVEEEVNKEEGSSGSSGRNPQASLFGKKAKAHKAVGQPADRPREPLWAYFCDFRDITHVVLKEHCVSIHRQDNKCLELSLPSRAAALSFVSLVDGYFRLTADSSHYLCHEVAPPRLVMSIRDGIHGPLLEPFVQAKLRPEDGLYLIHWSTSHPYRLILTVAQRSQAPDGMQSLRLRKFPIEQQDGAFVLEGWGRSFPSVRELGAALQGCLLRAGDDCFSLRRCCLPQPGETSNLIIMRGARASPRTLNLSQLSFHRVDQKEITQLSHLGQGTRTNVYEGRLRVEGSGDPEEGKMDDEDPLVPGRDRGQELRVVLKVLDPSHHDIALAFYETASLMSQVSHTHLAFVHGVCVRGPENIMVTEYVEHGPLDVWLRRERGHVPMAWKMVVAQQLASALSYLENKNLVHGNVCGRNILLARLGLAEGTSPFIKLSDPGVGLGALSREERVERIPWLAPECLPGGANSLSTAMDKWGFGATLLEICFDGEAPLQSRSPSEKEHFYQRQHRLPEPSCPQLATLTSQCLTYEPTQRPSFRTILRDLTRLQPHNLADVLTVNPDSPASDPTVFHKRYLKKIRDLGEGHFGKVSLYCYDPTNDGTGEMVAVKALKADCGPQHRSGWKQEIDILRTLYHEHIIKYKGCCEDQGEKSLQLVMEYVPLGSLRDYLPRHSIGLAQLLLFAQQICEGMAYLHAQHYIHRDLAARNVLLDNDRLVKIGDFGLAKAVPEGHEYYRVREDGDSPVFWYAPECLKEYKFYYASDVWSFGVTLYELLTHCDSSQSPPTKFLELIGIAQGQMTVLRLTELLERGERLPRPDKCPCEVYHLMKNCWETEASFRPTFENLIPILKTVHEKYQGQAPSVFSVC

[24] = target: Mitogen-activated protein kinase kinase kinase 12 (Homo sapiens) (UniProt Q12852); assay: Binding affinity to wild-type human full length DLK (M1 to P859 residues) expressed in mammalian expression system assessed as residual binding level at 1 uM by Kinomescan method relative to control
Chain of Mitogen-activated protein kinase kinase kinase 12 (Homo sapiens) (Q12852 whole entry, looked up, the tested form may be a part): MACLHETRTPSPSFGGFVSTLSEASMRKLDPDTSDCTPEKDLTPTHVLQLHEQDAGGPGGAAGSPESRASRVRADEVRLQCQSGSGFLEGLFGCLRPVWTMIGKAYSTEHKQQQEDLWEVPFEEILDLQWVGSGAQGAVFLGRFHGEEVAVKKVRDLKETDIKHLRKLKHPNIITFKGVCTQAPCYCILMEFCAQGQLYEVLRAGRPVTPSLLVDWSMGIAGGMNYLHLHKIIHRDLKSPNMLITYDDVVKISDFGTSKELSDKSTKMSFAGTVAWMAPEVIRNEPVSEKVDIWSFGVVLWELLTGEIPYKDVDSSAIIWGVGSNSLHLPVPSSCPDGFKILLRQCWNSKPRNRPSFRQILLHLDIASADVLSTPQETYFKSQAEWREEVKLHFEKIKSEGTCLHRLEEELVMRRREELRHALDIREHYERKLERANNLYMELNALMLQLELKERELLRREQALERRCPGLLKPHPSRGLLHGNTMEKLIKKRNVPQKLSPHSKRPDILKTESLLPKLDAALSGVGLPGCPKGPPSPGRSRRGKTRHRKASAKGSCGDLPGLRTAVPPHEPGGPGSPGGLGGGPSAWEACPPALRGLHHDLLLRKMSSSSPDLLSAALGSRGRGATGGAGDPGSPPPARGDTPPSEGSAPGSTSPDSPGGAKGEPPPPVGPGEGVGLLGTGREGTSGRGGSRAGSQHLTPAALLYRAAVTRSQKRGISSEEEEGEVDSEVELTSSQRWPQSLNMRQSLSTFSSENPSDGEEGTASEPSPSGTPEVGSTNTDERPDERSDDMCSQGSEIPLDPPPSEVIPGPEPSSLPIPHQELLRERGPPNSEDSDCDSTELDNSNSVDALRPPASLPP

Chain of Activin receptor type-1-like (Homo sapiens) (P37023 whole entry, the tested form may be a part): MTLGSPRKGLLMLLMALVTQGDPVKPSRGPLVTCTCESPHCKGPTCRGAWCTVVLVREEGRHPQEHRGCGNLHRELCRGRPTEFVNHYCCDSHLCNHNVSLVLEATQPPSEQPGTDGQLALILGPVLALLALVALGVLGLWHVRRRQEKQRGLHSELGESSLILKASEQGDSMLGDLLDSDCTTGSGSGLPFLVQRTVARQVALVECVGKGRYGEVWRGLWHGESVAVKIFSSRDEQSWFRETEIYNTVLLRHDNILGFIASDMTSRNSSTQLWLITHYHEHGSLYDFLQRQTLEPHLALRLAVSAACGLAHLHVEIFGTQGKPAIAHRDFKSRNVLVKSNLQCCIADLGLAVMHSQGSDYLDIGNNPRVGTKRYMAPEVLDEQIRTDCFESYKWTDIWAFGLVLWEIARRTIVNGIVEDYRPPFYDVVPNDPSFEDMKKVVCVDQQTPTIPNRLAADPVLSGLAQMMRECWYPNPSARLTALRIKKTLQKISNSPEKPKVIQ

CC(C)Nc1sc(C(=O)c2ccc(Cl)s2)c(N)c1C#N
Activity [1]: 100%
Activity [2]: 84%
Activity [3]: 83%
Activity [4]: 100%
Activity [5]: 37%
Activity [6]: 89%
Activity [7]: 100%
Activity [8]: 82%
Activity [9]: 81%
Activity [10]: 74%
Activity [11]: 100%
Activity [12]: 76%
Activity [13]: 57%
Activity [14]: 93%
Activity [15]: 59%
Activity [16]: 100%
Activity [17]: 100%
Activity [18]: 77%
Activity [19]: 100%
Activity [20]: 97%
Activity [21]: 72%
Activity [22]: 96%
Activity [23]: 100%
Activity [24]: 99%
